Experimental data reported in US6589977B1, “Pyrrole derivatives and cell death inhibitors” (Sagami Chemical Research Center, priority 1999, dated 2003).

Experiments:
erythrocytes = test: Inhibition of hydrogen peroxide-induced hemolysis of erythrocytes; format: cell-based, Human; conditions: compound 10 μM added prior to hydrogen peroxide (300 μM); after 24 hours
Description: Human blood was collected and precipitated by a centrifugation (1000 rpm, 5 min) and the precipitate containing erythrocytes was washed three times with PBS and resuspended (about 5×10^8 cells/ml) with DMEM containing 10% fetal bovine serum. Cell suspensions were dispensed into a 48-well plate to become subconfluent (about 5×10^5 cells/0.5 ml/well). When hydrogen peroxide (300 μM) was added and cultivation continued for 24 hours, more than 95% of erythrocytes underwent hemolysis and become dark and ghost-like on an observation under a light microscopy.

cerebellar granule cells [1] = test: Inhibition of antimycin A-induced death of cerebellar granule cells; format: cell-based, rats; conditions: compound 10 μM; antimycin A (5 μM); after 2 hours
Description: (§1) According to a known method (A Dissection and Tissue Culture Manual of the Nervous System, p. 211, 1989, Alan R, Liss, Inc.), cerebellar granule cells were isolated from the cerebellum of 7 days old rats and cultured. Namely, after conducting isolation procedures described in the above literature, the resulting cells were resuspended in DMEM containing 10% fetal bovine serum, 25 mM KCl and 2 mM glutamine, and seeded in poly-lysine coated plates. After the cells were cultured in a CO2 incubator for 48 hours according to a conventional method, cytosine-1-β-D(+)-arabinofuranoside (Ara-C) (10 μM) was added thereto, and the cell was continued to culture. The following experiments were conducted with the cells of 7 to 14 days old from the start day of the cultivation, the cells having completed neurite extension sufficiently.
When the test compound 15 (10 μM) coexisted prior to the antimycin A addition, more than 95% of cells were alive on an observation made similarly after 2 hours.

cerebellar granule cells [2] = test: Inhibition of glutamate-induced death of cerebellar granule cells; format: cell-based, rats; conditions: compound 10 μM; glutamate (1 mM); after 6 hours
Description: as §1
Medium of cerebellar granule cells cultured for 14 days as described in Test Example 3 was replaced with DMEM containing 10% of dialyzed fetal bovine serum and subjected to a further overnight culture. […] When the test compound 15 (10 μM) coexisted, more than 95% of cells were alive on an observation even after 6 hours.

cerebellar granule cells [3] = test: Inhibition of sodium azide-induced death of cerebellar granule cells; format: cell-based, rats; conditions: compound 10 μM; sodium azide (10 mM); after 2 hours
Description: as §1, with “After the cells were cultured in a CO2 incubator for 48 hours according to a conventional method, cytosine-1-β-D(+)-arabinofuranoside (Ara-C) (10 μM) was added thereto, and the cell was continued to culture.” left out

[4] = system: Porcine ovarian granulosa cells (POGC); test: Inhibition of SNP-induced apoptosis of porcine ovarian granulosa cells; format: cell-based; conditions: SNP 0.5 mM; cells observed after 18 hours
Description: Porcine ovaries were washed with PBS buffer, and Porcine ovarian granulosa cells (POGC) were collected by aspiration from follicles with a syringe. Cell fraction was recovered as a precipitate by centrifugation of the suspension. The operation of suspending the cell fraction into PBS buffer and subjecting the resulting suspension to centrifugation was repeated three times to wash the cells. The POGC obtained as a precipitate were suspended again into a culture medium (DMEM containing 10% fetal bovine serum) and cell clumps were disrupted by pipetting. The cell suspension was passed through a mesh to remove contaminating tissue fragments, and then pipetted in 24-well plates for cell culture. The cell suspension was cultured for 2 days in a CO2 incubator according to a conventional procedure (37° C., 5% CO2). Then, the medium was refreshed to remove floating cells and the cultivation was continued further 2 to 3 days until the cells reached subconfluency (0.7 to 2×10^5 cell/well). After the attaching cells were washed with serum-free medium, they were cultured in a serum-free DMEM (containing 5 μg/mL of transferrin, and 40 ng/mL of hydrocortisone, 4 mg/mL of bovine serum albumin (BSA), 100 nM androstendione) and it was possible to continue to culture cells with relatively immature differentiation. […] The cell death was also confirmed by MTT assay. Then, various concentrations of the test compounds were added to the present culture system and the cells were observed after 18 hours.

Hela 3S cells = test: Anti-cell death effect on Hela 3S cells cultured in Krebs Ringer Buffer; format: cell-based, human; conditions: compound 10 μM
Description: Hela 3S cells (culture medium: DMEM containing 10% fetal bovine serum), a cell line derived from human cervical cancer, were seeded into multi 48 well plates and cultured in a CO2 incubator according to conventional procedures. Confirming the subconfluency of a cell culture, the medium was replaced with Krebs Ringer Buffer (120 mM NaCl, […], 1 mM KH2PO4, […], 20 mM HEPES, pH 7.4, 2.57 g/L glucose, 0.05 g/L Phenol Red) and washed three times with the same buffer and cultivation continued in the same buffer. […] When the test compound 1 (10 μM) or the test compound 15 (10 μM) was added in the present culture system and cultivation continued similarly, the proportion of normal cells increased 59% or 77% respectively, and the proportion of necrosis-like cells decreased (1% or 0%, respectively), indicating the anti-cell death effects.

cerebellar granule cells [5] = test: Inhibition of bilirubin-induced death of cerebellar granule cells; format: cell-based, rats; conditions: compound 10 μM added prior to bilirubin (10 μg/ml); after 23 hours
Description: as §1
Neonatal jaundice is known to induce severe brain damages by way of abnormally high concentration of bilirubin in the body. […] When the test compound 15 (10 μM) was added prior to the bilirubin addition, more than 95% of cells were alive on an observation made similarly after 23 hours.

cerebellar granule cells [6] = test: Inhibition of MPPI-induced death of cerebellar granule cells (Parkinson model); format: cell-based, rats; conditions: compound 1 μM added prior to MPPI (200 μM); 15 DIV cells; after 18 hours
Description: as §1, with “The following experiments were conducted with the cells of 7 to 14 days old from the start day of the cultivation, the cells having completed neurite extension sufficiently.” left out
In Parkinson's disease the dopaminergic neurons in the substantia nigra and corpus striatum in the mid-brain are selectively destroyed. Because following administration of MPTP(1-methyl-4-phenyl-1,2,3,6-tetrahydropyridine) the similar selective destruction of the dopaminergic neurons and Parkinson's disease-like symptoms are observed, the administration system of MPTP is generally employed as an in vivo model of the onset of Parkinson's disease. […]

cerebellar granule cells [7] = test: Inhibition of low potassium medium-induced death of cerebellar granule cells; format: cell-based, rats; conditions: compound 10 μM; low potassium medium (5 mM KCl); after 18 hours
Description: as §1
It is known that neuronal cells undergo cell death when they are cultured in a medium of low potassium (Proc. Natl. Acad. Sci. U.S.A., volume 90, p 10989, 1993). […] When the test compound 1 (10 μM), the test compound 10 (10 μM), or the test compound 15 (10 μM)coexisted, 50%, 80%, and 85% of cells were respectively alive on an observation made similarly after 18 hours.

cerebellar granule cells [8] = test: Inhibition of FCCP-induced death of cerebellar granule cells; format: cell-based, rats; conditions: compound 10 μM; FCCP (5 μM); after 2 hours
Description: as §1
When the test compound 15 (10 μM) coexisted prior to the FCCP addition, 80% of cells were alive on an observation similarly made after 2 hours.

Structure (SMILES): Cc1ccc2[nH]cc(-c3cn(C)cc3-c3c[nH]c4ccc(C)cc34)c2c1 [Compound 15]
- inhibition of hemolysis (erythrocytes): almost complete inhibition of hemolysis
- cells alive (cerebellar granule cells [1]): more than 95%
- cells alive (cerebellar granule cells [2]): more than 95%
- cells alive (cerebellar granule cells [3]): more than 95%
- MEC (Minimum effective concentration for more than 95% of inhibition of cell death) [4]: 0.05 µM
- proportion of necrosis-like cells (Hela 3S cells; after 5 hours (11% without compound)): 0%
- proportion of normal cells (Hela 3S cells; after 5 hours (42% normal without compound)): 77%
- cells alive (cerebellar granule cells [5]): more than 95%
- cells alive (cerebellar granule cells [6]): more than 95%
- cells alive (cerebellar granule cells [7]): 85%
- cells alive (cerebellar granule cells [8]): 80%
